# Values of other authors, collected in PubChem BioAssay AID1259409 (Chemical Carcinogenesis Research Information System (CCRIS), 2018).
# System: rodent chemically induced tumor inhibition, incidence and multiplicity
# Test: CCRIS tumor inhibitor studies
# Conditions: Route [Inhibitor]: ORAL, Species: RAT, Strain/Sex: F344/MALE; for outcome: Dose [Carcinogen]: 0.1% IN DRINKING WATER FOR 1 WK (STUDY DURATION: 32 WK)
smiles,measurement,setting,value
COc1cc(/C=C/C(=O)O[C@H]2CC[C@]34C[C@]35CC[C@]3(C)[C@@H]([C@H](C)CCC=C(C)C)CC[C@@]3(C)[C@@H]5CC[C@H]4C2(C)C)ccc1O,outcome,"Carcinogen: 2,2'-DIHYDROXY-DI-N-PROPYLNITROSAMINE [621-64-7], Dose [Inhibitor]: 0.04% IN DIET FOR 30 WK BEGINNING 1 WK POST LAST CARCINOGEN DOSE (STUDY DURATION: 32 WK), Target Tissue: Type of Lesion: LUNG: CARCINOMA, Promoter: NONE","0/20 (0%), 0/20 (0%), 0%, not significant"
same,outcome,"Carcinogen: 2,2'-DIHYDROXY-DI-N-PROPYLNITROSAMINE [621-64-7], Dose [Inhibitor]: 0.2% IN DIET FOR 30 WK BEGINNING 1 WK POST LAST CARCINOGEN DOSE (STUDY DURATION: 32 WK), Target Tissue: Type of Lesion: LUNG: CARCINOMA, Promoter: NONE","0/20 (0%), 2/20 (10%), -100%, not significant"
same,outcome,"Carcinogen: 2,2'-DIHYDROXY-DI-N-PROPYLNITROSAMINE [621-64-7], Dose [Inhibitor]: 1% IN DIET FOR 30 WK BEGINNING 1 WK POST LAST CARCINOGEN DOSE (STUDY DURATION: 32 WK), Target Tissue: Type of Lesion: LUNG: CARCINOMA, Promoter: NONE","0/20 (0%), 10/20 (50%), -100%, p<0.001"
same,"tumour outcome (control, treated, inhibition, significance)","Carcinogen: 2,2'-DIHYDROXY-DI-N-PROPYLNITROSAMINE [621-64-7], N-ETHYL-N-HYDROXYETHYLNIATROSAMINE [13147-25-6], 3,2'-DIMETHYL-4-AMINO, Carcinogen: 2,2'-DIHYDROXY-DI-N-PROPYLNITROSAMINE [621-64-7], N-ETHYL-N-HYDROXYETHYLNIATROSAMINE [13147-25-6], 3,2'-DIMETHYL-4-AMINO, Dose [Inhibitor]: 1% IN DIET FOR 32 WK BEGINNING 1 WK POST LAST CARCINOGEN DOSE (STUDY DURATION: 32 WK), Target Tissue: Type of Lesion: LIVER: ADENOMA, Dose [Carcinogen]: 1000 MG/KG BW DHPN IP 2X/3 WK, 1500 MG/KG BW EHEN IP 2X/3 WK, 75 MG/KG BW DMAB SC 3X/3 WK;, Dose [Carcinogen]: 1000 MG/KG BW DHPN IP 2X/3 WK, 1500 MG/KG BW EHEN IP 2X/3 WK, 75 MG/KG BW DMAB SC 3X/3 WK;, Promoter: NONE","9/14 (64%), 5/13 (38%), 41%, p<0.05"
same,"tumour outcome (control, treated, inhibition, significance)","Carcinogen: 2,2'-DIHYDROXY-DI-N-PROPYLNITROSAMINE [621-64-7], N-ETHYL-N-HYDROXYETHYLNIATROSAMINE [13147-25-6], 3,2'-DIMETHYL-4-AMINO, Carcinogen: 2,2'-DIHYDROXY-DI-N-PROPYLNITROSAMINE [621-64-7], N-ETHYL-N-HYDROXYETHYLNIATROSAMINE [13147-25-6], 3,2'-DIMETHYL-4-AMINO, Dose [Inhibitor]: 1% IN DIET FOR 32 WK BEGINNING 1 WK POST LAST CARCINOGEN DOSE (STUDY DURATION: 32 WK), Target Tissue: Type of Lesion: LIVER: CARCINOMA, Dose [Carcinogen]: 1000 MG/KG BW DHPN IP 2X/3 WK, 1500 MG/KG BW EHEN IP 2X/3 WK, 75 MG/KG BW DMAB SC 3X/3 WK;, Dose [Carcinogen]: 1000 MG/KG BW DHPN IP 2X/3 WK, 1500 MG/KG BW EHEN IP 2X/3 WK, 75 MG/KG BW DMAB SC 3X/3 WK;, Promoter: NONE","6/14 (43%), 3/13 (23%), 47%, not significant"
same,"tumour outcome (control, treated, inhibition, significance)","Carcinogen: 2,2'-DIHYDROXY-DI-N-PROPYLNITROSAMINE [621-64-7], N-ETHYL-N-HYDROXYETHYLNIATROSAMINE [13147-25-6], 3,2'-DIMETHYL-4-AMINO, Carcinogen: 2,2'-DIHYDROXY-DI-N-PROPYLNITROSAMINE [621-64-7], N-ETHYL-N-HYDROXYETHYLNIATROSAMINE [13147-25-6], 3,2'-DIMETHYL-4-AMINO, Dose [Inhibitor]: 1% IN DIET FOR 32 WK BEGINNING 1 WK POST LAST CARCINOGEN DOSE (STUDY DURATION: 32 WK), Target Tissue: Type of Lesion: LUNG: ADENOMA, Dose [Carcinogen]: 1000 MG/KG BW DHPN IP 2X/3 WK, 1500 MG/KG BW EHEN IP 2X/3 WK, 75 MG/KG BW DMAB SC 3X/3 WK;, Dose [Carcinogen]: 1000 MG/KG BW DHPN IP 2X/3 WK, 1500 MG/KG BW EHEN IP 2X/3 WK, 75 MG/KG BW DMAB SC 3X/3 WK;, Promoter: NONE","7/14 (50%), 11/13 (85%), -70%, not significant"
same,"tumour outcome (control, treated, inhibition, significance)","Carcinogen: 2,2'-DIHYDROXY-DI-N-PROPYLNITROSAMINE [621-64-7], N-ETHYL-N-HYDROXYETHYLNIATROSAMINE [13147-25-6], 3,2'-DIMETHYL-4-AMINO, Carcinogen: 2,2'-DIHYDROXY-DI-N-PROPYLNITROSAMINE [621-64-7], N-ETHYL-N-HYDROXYETHYLNIATROSAMINE [13147-25-6], 3,2'-DIMETHYL-4-AMINO, Dose [Inhibitor]: 1% IN DIET FOR 32 WK BEGINNING 1 WK POST LAST CARCINOGEN DOSE (STUDY DURATION: 32 WK), Target Tissue: Type of Lesion: LUNG: CARCINOMA, Dose [Carcinogen]: 1000 MG/KG BW DHPN IP 2X/3 WK, 1500 MG/KG BW EHEN IP 2X/3 WK, 75 MG/KG BW DMAB SC 3X/3 WK;, Dose [Carcinogen]: 1000 MG/KG BW DHPN IP 2X/3 WK, 1500 MG/KG BW EHEN IP 2X/3 WK, 75 MG/KG BW DMAB SC 3X/3 WK;, Promoter: NONE","1/14 (8%), 7/13 (54%), -575%, p<0.05"
same,"tumour outcome (control, treated, inhibition, significance)","Carcinogen: 2,2'-DIHYDROXY-DI-N-PROPYLNITROSAMINE, 53609-64-6, N-ETHYL-N-HYDROXYETHYL- NITROSAMINE, 13147-25-6, 3,2'-DIMETHYL-4-, Carcinogen: 2,2'-DIHYDROXY-DI-N-PROPYLNITROSAMINE, 53609-64-6, N-ETHYL-N-HYDROXYETHYL- NITROSAMINE, 13147-25-6, 3,2'-DIMETHYL-4-, Dose [Inhibitor]: 0, 1% IN DIET BEGINNING 1 WK POST LAST CARCINOGEN DOSE AND CONTINUING FOR 32 WK (STUDY DURATION: 36 WK), Target Tissue: Type of Lesion: LARGE INTESTINE: ADENOMA, Dose [Carcinogen]: 1000 MG/KG IP DHPN 2X, 1500 MG/KG GAV EHEN 2X AND 75 MG/KG SC DMAB 3X GIVEN OVER THE INITIAL 3 WK PERIOD AT 3-4 D INTERV, Promoter: NONE USED","7/14 (50%), 5/13 (38%), 24%, not significant"
same,"tumour outcome (control, treated, inhibition, significance)","Carcinogen: 2,2'-DIHYDROXY-DI-N-PROPYLNITROSAMINE, 53609-64-6, N-ETHYL-N-HYDROXYETHYL- NITROSAMINE, 13147-25-6, 3,2'-DIMETHYL-4-, Carcinogen: 2,2'-DIHYDROXY-DI-N-PROPYLNITROSAMINE, 53609-64-6, N-ETHYL-N-HYDROXYETHYL- NITROSAMINE, 13147-25-6, 3,2'-DIMETHYL-4-, Dose [Inhibitor]: 0, 1% IN DIET BEGINNING 1 WK POST LAST CARCINOGEN DOSE AND CONTINUING FOR 32 WK (STUDY DURATION: 36 WK), Target Tissue: Type of Lesion: LARGE INTESTINE: CARCINOMA, Dose [Carcinogen]: 1000 MG/KG/ IP DHPN 2X, 1500 MG/KG GAV EHEN 2X 75 MG/KG SC DMAB 3X GIVEN OVER THE INITIAL 3 WK PERIOD AT 3-4 D INTERVALS, Promoter: NONE USED","3/14 (21%), 6/13 (46%), -119%, not calculated"
